Each structure is given as a SMILES string. Read-outs that look alike come from different tables or passages of the source.

One data set has as its system IL-1β. In words: Flow cytometric analysis of IL-1β expression in Aβ-induced SH-SY5Y cells. In kind it is cell-based, human. On the technique in general: In flow cytometry, cells or beads pass a laser one at a time.
A further data set deals with IL-6. In words: Flow cytometric analysis of IL-6 expression in Aβ-induced SH-SY5Y cells. In kind it is cell-based, human.
For a further data set, the system named is ROS. In words: Flow cytometric analysis of ROS in Aβ-induced SH-SY5Y cells. Type of data set: cell-based, human.
Another data set deals with TNF-α. The data set can be described thus: Flow cytometric analysis of TNF-α expression in Aβ-induced SH-SY5Y cells. In kind it is cell-based, human.
Data set [1] relates to human neuroblastoma (SH-SY5Y) cells. The data set can be described thus: Cytotoxicity/cell viability MTT assay. In kind it is cell-based. As to conditions: for Nature in cytotoxicity study: MTT. For orientation: Tetrazolium assays rely on reduction of a dye to a coloured formazan, in cell work by metabolically active cells.
Data set [2] relates to Aβ-induced SH-SY5Y cell line. In words: Anti-inflammatory and anti-oxidant activity in the Aβ-induced SH-SY5Y cell line. In kind it is cell-based, human. To be noted: 2.5 to 40 μM, vs pioglitazone.
The next data set addresses T1, PPAR-γ (Homo sapiens, UniProt P37231).
T1 sequence (P37231 1-505): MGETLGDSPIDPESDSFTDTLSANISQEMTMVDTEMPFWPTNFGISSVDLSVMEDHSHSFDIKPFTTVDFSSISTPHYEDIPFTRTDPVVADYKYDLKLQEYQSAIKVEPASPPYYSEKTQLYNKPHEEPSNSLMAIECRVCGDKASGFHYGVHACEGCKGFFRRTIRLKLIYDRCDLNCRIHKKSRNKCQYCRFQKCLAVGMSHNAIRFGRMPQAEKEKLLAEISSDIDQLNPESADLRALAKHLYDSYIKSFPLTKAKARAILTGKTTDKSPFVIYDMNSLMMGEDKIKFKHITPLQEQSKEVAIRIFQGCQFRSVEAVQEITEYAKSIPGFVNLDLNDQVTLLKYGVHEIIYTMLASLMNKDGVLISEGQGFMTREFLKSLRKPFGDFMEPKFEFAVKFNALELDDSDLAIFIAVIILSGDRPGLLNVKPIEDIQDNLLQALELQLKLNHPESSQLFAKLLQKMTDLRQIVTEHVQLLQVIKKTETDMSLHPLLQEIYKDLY
In words: PPAR-γ transactivation assay. In kind it is cell-based. As to conditions: SH-SY5Y cells, 1–16 μM.

[3] abbreviates: Homo sapiens, SH-SY5Y, read-out: IC50 MTT assay, SH-SY5Y cells.
Where [4] appears, read: read-out: IC50 MTT assay, SH-SY5Y cells.

On to `CCc1ccc(CCOc2ccc(CC3SC(=O)NC3=O)cc2)nc1` (stereo not shown) [Pioglitazone, pioglitazone], for which the IL-1β% cell expression amounted to 70.21% in the data set on IL-1β (Aβ 10 μM + 2.5 μM compound); 52.38% in the data set with IL-1β (Aβ 10 μM + 5 μM compound); 32.36% with IL-1β (Aβ 10 μM + 10 μM compound); 15.15% with IL-1β (Aβ 10 μM + 20 μM compound); 10.76% in the data set on IL-1β (Aβ 10 μM + 40 μM compound). In addition, the IL-6% cell expression with IL-6 (Aβ 10 μM + 2.5 μM compound) came to 42.95%; with IL-6 (Aβ 10 μM + 5 μM compound) it was 30.23%; in the data set with IL-6 (Aβ 10 μM + 10 μM compound), 15.09%; with IL-6 (Aβ 10 μM + 20 μM compound) it was 9.51%; in the data set with IL-6 (Aβ 10 μM + 40 μM compound), 12.31%. Also, the ROS% cell expression was found to be 60.98% in the data set on ROS (Aβ 10 μM + 2.5 μM compound); 53.96% in the data set on ROS (Aβ 10 μM + 5 μM compound); 41.78% with ROS (Aβ 10 μM + 10 μM compound); 21.01% in the data set on ROS (Aβ 10 μM + 20 μM compound); 9.07% in the data set with ROS (Aβ 10 μM + 40 μM compound). Besides, the TNF-α% cell expression came out at 67.8% in the data set with TNF-α (Aβ 10 μM + 2.5 μM compound); 53.92% in the data set with TNF-α (Aβ 10 μM + 5 μM compound); 24.85% in the data set on TNF-α (Aβ 10 μM + 10 μM compound); 9.8% in the data set on TNF-α (Aβ 10 μM + 20 μM compound); 5.5% in the data set on TNF-α (Aβ 10 μM + 40 μM compound).
A word on the IC50: it is the midpoint of a concentration-inhibition curve. As for `COc1cc(/C=C/C(C)=N/O)ccc1OCC(=O)Nc1ccc(Cl)cc1` [Compound 4a, N-(4-Chlorophenyl)-2-(4-((1E,3E)-3-(hydroxyimino)but-1-en-1-yl)-2methoxyphenoxy)acetamide], the IC50 in data set [1] (setting [3]) was 108 µM; in data set [1] (setting [4]), greater than 100 µM. The “Nature in cytotoxicity study” value in data set [1] (SH-SY5Y cells) is “cell proliferative and non-cytotoxic”. Also, the “Anti-inflammatory and anti-oxidant activity (expression of pro-inflammatory cytokines and ROS)” value in data set [2] was “promising anti-inflammatory activity and anti-oxidant activity”. Further, the PPAR-γ transcriptional activity entry on PPAR-γ is recorded as “dose-dependent enhancement”.
In the case of `COc1cc(/C=C/C(C)=N/O)ccc1OCC(=O)Nc1cccc(C)c1` [Compound 4h, 2-(4-((1E,3E)-3-(Hydroxyimino)but-1-en-1-yl)-2-methoxyphenoxy)-N-(m-tolyl)acetamide], the IC50 in data set [1] (setting [3]) is 150 µM; in data set [1] (setting [4]), greater than 100 µM. Moreover, the “Nature in cytotoxicity study” value in data set [1] (SH-SY5Y cells) was “cell proliferative and non-cytotoxic”. The “Anti-inflammatory and anti-oxidant activity (expression of pro-inflammatory cytokines and ROS)” value in data set [2] is “promising anti-inflammatory activity and anti-oxidant activity”. For the same molecule, on PPAR-γ, the PPAR-γ transcriptional activity entry is listed as “dose-dependent enhancement”.
For the molecule `CC(/C=C/c1ccc(OCC(=O)Nc2ccccc2)cc1)=N\O` [Compound 4i, 2-(4-((1E,3E)-3-(Hydroxyimino)but-1-en-1-yl)phenoxy)-N-phenylacetamide], the IC50 in data set [1] (setting [3]) came out at 82.3 µM. In addition, in data set [1] (SH-SY5Y cells), the “Nature in cytotoxicity study” value is “cytotoxic”.
As for `COc1cc(/C=C/C(C)=N/O)ccc1OCC(=O)Nc1ccc(C)cc1` [Compound 4b, 2-(4-((1E,3E)-3-(Hydroxyimino)but-1-en-1-yl)-2-methoxyphenoxy)-N-(p-tolyl)acetamide], the IC50 in data set [1] (setting [3]) was 112 µM. In data set [1] (SH-SY5Y cells), the “Nature in cytotoxicity study” value was “cell proliferative and non-cytotoxic”.
For `COc1cc(/C=C/C(C)=N/O)ccc1OCC(=O)Nc1ccccc1C` [Compound 4e, 2-(4-((1E,3E)-3-(Hydroxyimino)but-1-en-1-yl)-2-methoxyphenoxy)-N-(o-tolyl)acetamide], the IC50 in data set [1] (setting [3]) is 79.7 µM. Further, the “Nature in cytotoxicity study” value in data set [1] (SH-SY5Y cells) was “cytotoxic”.
With `CC(/C=C/c1ccc(OCC(=O)Nc2ccccc2F)cc1)=N\O` [Compound 4f, N-(2-Fluorophenyl)-2-(4-((1E,3E)-3-(hydroxyimino)but-1-en-1-yl)phenoxy)acetamide], the IC50 in data set [1] (setting [3]) was 66.7 µM. In addition, in data set [1] (SH-SY5Y cells), the “Nature in cytotoxicity study” value is recorded as “cytotoxic”.
In the case of `COc1cc(/C=C/C(C)=N/O)ccc1OCC(=O)Nc1ccccc1` [Compound 4c, 2-(4-((1E,3E)-3-(Hydroxyimino)but-1-en-1-yl)-2-methoxyphenoxy)-N-phenylacetamide], the IC50 in data set [1] (setting [3]) came to 50.7 µM. In data set [1] (SH-SY5Y cells), the “Nature in cytotoxicity study” value is reported as “cytotoxic”.

Source of the values: article PMC11492828 (RSC Advances, 2024).
